Assay results as given in patent US8563717B2, “Adenine derivatives” (GlaxoSmithKline LLC, priority 2008, dated 2013).
pIC50: −log10 of the molar value.

What was measured:
Assay type in all cases: cell-based
IL-13 = test: Allergen-driven cytokine assay using fresh human PBMCs from atopic volunteers (IL-13); settings: PBMC, PBMCs from at least two allergic donors, 10 μg/ml Timothy grass antigen, compared to the allergen control, read-out: concentration at which ≧50% reduction of IL-13 production observed
Procedure: (§1) Allergen-Driven Cytokine Assay Using Fresh Human Peripheral Blood Mononuclear Cells (PBMCs) from Atopic Volunteers
(§2) An assay based on co-culture of atopic human donor derived peripheral blood mononuclear cells (PBMCs) with allergen and test compounds was developed. After 5-6 days culture, cell supernatants were assayed for a range of cytokines.
(§3) Compounds were dissolved in DMSO, then serially diluted in growth medium (RPMI 1640 medium supplemented with 100 U/ml penicillin G, 100 μg/ml streptomycin, 10 mM L-glutamine) to give 4× the required concentration range in the presence of 0.04% DMSO. Each compound was assayed in triplicate at all concentrations.
(§4) Defibrinated human blood from volunteers known to be allergic to Timothy grass was centrifuged at 2500 rpm for 15 minutes. The upper layer of serum was collected and heat-inactivated at 56° C. for 30 minutes (HI-autologous serum). The lower layer of cells was resuspended in 50 ml PBS (+Ca +Mg), 25 ml diluted blood were overlaid onto 20 ml Lymphoprep in 50 ml tubes then centrifuged at 2500 rpm for 20 minutes at RT. The band at the serum/Lymphoprep interface was carefully removed. The collected cells were washed with PBS and re-suspended at 4×10^6/ml in growth medium with HI-autologous serum. PBMCs were seeded at 0.4×10^6 cells/well in flat-bottomed 96 well plates in the presence of 10 μg/ml Timothy grass antigen (Alk Abello) and test compounds at appropriate concentrations in a total volume of 200 ul.
(§5) Plates were incubated at 37° C. in 5% CO2 for up to 6 days. The cell medium from each well was harvested and stored at −20° C. prior to analysis. Cytokines and chemokines in supernatants were detected using Meso Scale Discovery 10 spot plates for Human TH1/Th2 cytokines.

TNF-α = test: Induction of TNF-α using fresh human PBMCs; settings: PBMC, 24 hr incubation, relative to 2 μM resiquimod control, read-out: mean pEC50 for induction of TNF-α (converted)
Procedure: (§6) Assay for the Induction of Interferon-α and TNF-α Using Fresh Human Peripheral Blood Mononuclear Cells (PBMCs)
(§7) Compounds were dissolved and serially diluted in DMSO to give 100× the required concentration range using a Biomek 2000. 1 ul of test compound was transferred into 96-well tissue culture plates using a Biomek FX. Each compound was assayed in duplicate for each donor. Each plate contained a dilution series of the TLR7/8 agonist resiquimod as standard and Column 11 contained 1 μl of 200 μM resiquimod (giving a 2 μM final concentration, used to define the approximate maximal response to resiquimod).
(§8) Blood samples from two human donors were collected into sodium heparin (10 U/ml). 25 ml volumes of whole blood were overlaid onto 15 mls Histopaque in Leucosep tubes which were centrifuged at 800 g for 20 min and the band at the plasma/histopaque interface carefully removed. The collected cells were centrifuged at 2500 rpm for 10 min. and the pellet resuspended in 10 ml of media (RPMI 1640 (Low endotoxin) supplemented with 10% v/v foetal calf serum (FCS, low endotoxin) 100 U/ml penicillin G, 100 μg/ml streptomycin, 10 mM L-glutamine and 1× non-essential amino acids). A 1:20 dilution of the cells was prepared using trypan blue & the cells counted using a haemocytometer. The PBMCs were diluted to give a final concentration of 2×10^6/ml and 100 ul of this cells suspension was added to wells containing 1 μl of diluted test compound.
(§9) The cell preparations were incubated for 24 hr. (37° C., 95% air, 5% CO2) after which a sample of the supernatant was removed using the Biomek FX and assayed for both IFN-α and TNF-α using the MSD (Mesoscale Discovery) electrochemiluminescence assay platform. The IFN-α assay was carried out similarly to that described above. The TNF-α assay was carried out as per kit instructions (Cat No K111BHB).
(§10) Cytokine released was expressed as a percentage of the 2 μM resiquimod control (column 11). This percentage was plotted against compound concentration and the pEC50 for the response determined by non-linear least squares curve fitting. For the IFN-α responses generally a 4 parameter logistic model was selected. For the TNF responses where a clear maximum response was obtained (i.e. a well defined plateau in the response was observed) then a 4 parameter model was generally used. If the upper asymptote of the curve wasn't well defined then the curve fitting was generally constrained to a maximal response of 100% (i.e., to the response to 2 μM resiquimod) or to the response of the highest concentration tested if this was greater than the resiquimod response. Some curves were bell shaped for one or both cytokines and the cytokine data on the down slope of the bell shaped response (i.e. concentrations above those giving the maximal response) were generally excluded from the fit, usually with the exception of the concentration immediately above the peak response. Curve fitting thus concentrated on the up slope of the dose response curve.

IL-5 = test: Allergen-driven cytokine assay using fresh human PBMCs from atopic volunteers (IL-5); settings: PBMC, PBMCs from at least two allergic donors, 10 μg/ml Timothy grass antigen, compared to the allergen control, read-out: concentration at which ≧50% reduction of IL-5 production observed
Procedure: as §1, §2, §3, §4, §5

Interferon-α [1] = test: Induction of Interferon-α using fresh human PBMCs; settings: PBMC, 24 hr incubation, relative to 2 μM resiquimod control, read-out: mean pEC50 for induction of IFN-α (converted)
Procedure: as §6, §7, §8, §9, §10

Interferon-α [2] = test: Induction of Interferon-α using cryopreserved human PBMCs; settings: PBMC, 24 h incubation, normalised to 1 uM resiquimod, read-out: mean pEC50 for induction of IFN-α (converted)
Procedure, shortened: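 Cryopreserved healthy-donor PBMCs at 1×10^6 cells/ml in RPMI/10% FCS with 1000 units/ml IFN-gamma, exposed 24 h at 37 °C to 11-point two-fold compound dilutions. Supernatant IFN-α quantified by MSD electrochemiluminescence immunoassay; pEC50 from 4-parameter fit, normalised to 1 uM resiquimod and DMSO.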

| pIC50 (IL-13) | EC50 (TNF-α) | pIC50 (IL-5) | EC50 (Interferon-α [1]) | SMILES | EC50 (Interferon-α [2]) |
| --- | --- | --- | --- | --- | --- |
| ≥ 7.40 | > 1000 nM | ≥ 8.10 | < 100 nM | CCCCOc1nc(N)c2[nH]c(=O)n(CCC3CCN(CC)CC3)c2n1 [Example 8] | < 1580 nM |
| ≥ 7.40 | > 1000 nM | ≥ 8.10 | < 10 nM | CCCCOc1nc(N)c2[nH]c(=O)n(CCCC3CCN(CC)CC3)c2n1 [Example 9] | < 1580 nM |
| ≥ 7.40 | > 1000 nM | ≥ 8.10 | < 10 nM | CCCCOc1nc(N)c2[nH]c(=O)n(CCCCC3CCN(CC)CC3)c2n1 [Example 10, 6-Amino-2-(butyloxy)-9-[4-(1-ethyl-4-piperidinyl)butyl]-7,9-dihydro-8H-purin-8-one] | < 1580 nM |
| ≥ 7.40 | > 1000 nM | ≥ 8.10 | < 10 nM | CCC[C@H](C)Oc1nc(N)c2[nH]c(=O)n(CCC3CCN(C(C)C)CC3)c2n1 [Example 92, 6-Amino-2-{[(1S)-1-methylbutyl]oxy}-9-{2-[1-(1-methylethyl)-4-piperidinyl]ethyl}-7,9-dihydro-8H-purin-8-one] | < 1580 nM |
| – | > 1000 nM | – | < 1 nM | CCCCOc1nc(N)c2[nH]c(=O)n(CCCC3CCN(CCCC)CC3)c2n1 [Example 96, 6-Amino-2-(butyloxy)-9-[3-(1-butyl-4-piperidinyl)propyl]-7,9-dihydro-8H-purin-8-one] | < 1580 nM |
| – | > 1000 nM | – | < 10 nM | CCCCOc1nc(N)c2[nH]c(=O)n(CCCC3CCN(C4CCCCC4)CC3)c2n1 [Example 102, 6-Amino-2-(butyloxy)-9-[3-(1-cyclohexyl-4-piperidinyl)propyl]-7,9-dihydro-8H-purin-8-one] | < 1580 nM |
| – | > 31.6 nM | – | < 0.316 nM | CCC[C@H](C)Oc1nc(N)c2[nH]c(=O)n(CCCC3CCNCC3)c2n1 [Example 104, 6-Amino-2-{[(1S)-1-methylbutyl]oxy}-9-[3-(4-piperidinyl)propyl]-7,9-dihydro-8H-purin-8-one] | < 1580 nM |
| – | > 31.6 nM | – | < 0.316 nM | CCC[C@H](C)Oc1nc(N)c2[nH]c(=O)n(CCCC3CCN(C(C)C)CC3)c2n1 [Example 106, 6-Amino-2-{[(1S)-1-methylbutyl]oxy}-9-{3-[1-(1-methylethyl)-4-piperidinyl]propyl}-7,9-dihydro-8H-purin-8-one] | < 1580 nM |
| – | > 1000 nM | – | < 1 nM | CCCCOc1nc(N)c2[nH]c(=O)n(CCCCC3CCN(CCC)CC3)c2n1 [Example 108, 6-Amino-2-(butyloxy)-9-[4-(1-propyl-4-piperidinyl)butyl]-7,9-dihydro-8H-purin-8-one] | < 1580 nM |
| – | > 31.6 nM | – | < 0.316 nM | CCC[C@H](C)Oc1nc(N)c2[nH]c(=O)n(CCCCC3CCN(CC)CC3)c2n1 [Example 119, 6-Amino-9-[4-(1-ethyl-4-piperidinyl)butyl]-2-{[(1S)-1-methylbutyl]oxy}-7,9-dihydro-8H-purin-8-one] | < 1580 nM |
| – | > 31.6 nM | – | < 0.316 nM | CCCCOc1nc(N)c2[nH]c(=O)n(CCCCCC3CCNCC3)c2n1 [Example 122, 6-Amino-2-(butyloxy)-9-[5-(4-piperidinyl)pentyl]-7,9-dihydro-8H-purin-8-one] | < 1580 nM |
| – | > 1000 nM | – | < 100 nM | CC(C)Oc1nc(N)c2[nH]c(=O)n(CCCCC3CCNCC3)c2n1 [Example 135, 6-Amino-2-[(1-methylethyl)oxy]-9-[4-(4-piperidinyl)butyl]-7,9-dihydro-8H-purin-8-one] | < 1580 nM |
